In patent EP3868759A1, “2,3,5-SUBSTITUTED PYRROLO[2,3-B]PYRIDINES AS ERBB MODULATORS USEFUL FOR TREATING CANCER” (PearlRiver Bio GmbH, priority 2020, dated 2021):

How the values were obtained:
EGFR wt = EGFR wt (Homo sapiens, UniProt P00533); experiment: Lance assay, EGFR wt; conditions: biochemical Lance assay
[1] = test system: EGFR Exon 20 InsNPH Ba/F3; experiment: CellTiter-Glo cell viability, EGFR Exon 20 InsNPH Ba/F3; format: cell-based; conditions: Mus musculus, BaF3, 72 h, read-out: EGFR Exon 20 InsNPH Ba/F3 CTG IC50
Procedure: (§1) The CellTiter-Glo Luminescent Cell Viability Assay (Promega) is a homogeneous method of determining the number of viable cells in culture. It is based on quantification of ATP, indicating the presence of metabolically active cells. Cells are seeded on day 1 at cell numbers that assure assay linearity and optimal signal intensity. After incubation for 24h in humidified chambers at 37°C and 5% CO2, compounds in DMSO are added at different concentrations. Cells are further incubated for 72 h at 37°C and 5% CO2. Cells treated with the compound vehicle DMSO are used as positive controls and cells treated with 10 µM Staurosporine serve as negative controls. At day 5 the CellTiter Glo Reagent is prepared according to the instructions of the kit (Promega Inc.): Reagent is mixed 1:1 with cell culture medium. Thereon, mixture and assay plates are equilibrated at room temperature for 20 min. Equal volumes of the reagent-medium-mixture is added to the volume of culture medium present in each well. The plates are mixed at ∼200 rpm for 2 minutes on an orbital shaker. The microplates are then incubated at room temperature for 10 minutes for stabilization of the luminescent signal. Following incubation the luminescence is recorded on a Victor microplate reader (Perkin Elmer) using a 200 ms integration time. The data is then analyzed with Excel using the XLFIT Plugin (dose response Fit 205) for IC50-determination. As quality control the Z'-factor is calculated from 16 positive and negative control values. Only assay results showing a Z'-factor ≥ 0.5 are used for further analysis.

A431 = experiment: CellTiter-Glo cell viability, A431; format: cell-based; conditions: Homo sapiens, A-431, 72 h, read-out: A431 CTG IC50
Procedure: as §1

HER2 INS YVMA = molecular target: T1, HER2 INS YVMA (Homo sapiens, UniProt P04626, INS775YVMA); experiment: Lance Kinase Activity Assay, Her2 Exon 20 InsYVMA; conditions: biochemical Lance assay
T1 construct: purchased DPF
Procedure: This protocol describes how the Lance Kinase Activity Assay was performed to determine IC50 values of compounds of general formula (I) against HER2 INS YVMA. The principle behind this enzymatic assay is based upon the phosphorylation of the Ulight-peptide substrate. It is detected by using a specific EU-labeled anti-phospho peptide antibody. The binding of the Eu labeled anti-phospho peptide antibody to the phosphorylated ULight labeled peptide gives rise to a FRET-signal. Binding of an inhibitor to the kinase prevents phosphorylation of the Ulight-substrate, resulting in a loss of FRET. In table 2 is summarized the relevant information for the LANCE assay. Table 2: Reagents, stock concentrations and final assay concentrations for Her2 INS YVMA.
The compounds of general formula (I) summarized in Table 3 were serial diluted from a 10 mM DMSO stock solution 1:3 over 8 steps in a total volume of 20 µl. For every sample, 8 µl of kinase-substrate mix was transferred into a suitable assay plate (e.g. Corning #3673). Compound was added via pintool transfer (10nl/well) using a Biomek FX robot (BeckmanCoulter). Reaction was started by addition of 2µl ATP working solution and mixed using variomag teleshaker (Thermo Fischer Scientific). After 1 h incubation at room temperature the reaction was stopped with 10µl detection mix containing the Eu-labeled phosphospecific antibody and 10mM EDTA. After a second incubation period of 1 h at room temperature the FRET signal was measured at 340 nm excitation, 665 nm and 615 nm emission (for the ULight-substrate and Eu-AB, respectively) with an Envision spectrophotometer (Perkin Elmer, Waltham, MA, USA) with 50 µs delay and 300 µs integration time. IC50 values were determined from the sigmoidal dose response curves with the software Quattro Workflow (Quattro GmbH, Munich, Germany).

EGFR T790M L858R = EGFR T790M L858R (Homo sapiens, UniProt P00533, L858R/T790M); experiment: Lance assay, EGFR T790M L858R; conditions: biochemical Lance assay
EGFR L858R = EGFR L858R (Homo sapiens, UniProt P00533, L858R); experiment: Lance assay, EGFR L858R; conditions: biochemical Lance assay
EGFR L858R Ba/F3 = experiment: CellTiter-Glo cell viability, EGFR L858R Ba/F3; format: cell-based; conditions: Mus musculus, BaF3, 72 h, read-out: EGFR L858R Ba/F3 CTG IC50 /
Procedure: as §1

EGFR vIII Ba/F3 = experiment: CellTiter-Glo cell viability, EGFR vIII Ba/F3; format: cell-based; conditions: Mus musculus, BaF3, 72 h, read-out: EGFR vIII Ba/F3 CTG IC50 /
Procedure: as §1

[2] = test system: Her2 Exon 20 InsYVMA Ba/F3; experiment: CellTiter-Glo cell viability, Her2 Exon 20 InsYVMA Ba/F3; format: cell-based; conditions: Mus musculus, BaF3, 72 h, read-out: Her2 Exon 20 InsYVMA Ba/F3 CTG IC50
Procedure: as §1

EGFR L858R T790M Ba/F3 = experiment: CellTiter-Glo cell viability, EGFR L858R T790M Ba/F3; format: cell-based; conditions: Mus musculus, BaF3, 72 h, read-out: EGFR L858R T790M Ba/F3 CTG IC50 /
Procedure: as §1

EGFR (del746-750) = EGFR (del746-750) (Homo sapiens, UniProt P00533, DEL746-750); experiment: Lance assay, EGFR (del746-750); conditions: biochemical Lance assay

Chain of EGFR wt (P00533 25-1210): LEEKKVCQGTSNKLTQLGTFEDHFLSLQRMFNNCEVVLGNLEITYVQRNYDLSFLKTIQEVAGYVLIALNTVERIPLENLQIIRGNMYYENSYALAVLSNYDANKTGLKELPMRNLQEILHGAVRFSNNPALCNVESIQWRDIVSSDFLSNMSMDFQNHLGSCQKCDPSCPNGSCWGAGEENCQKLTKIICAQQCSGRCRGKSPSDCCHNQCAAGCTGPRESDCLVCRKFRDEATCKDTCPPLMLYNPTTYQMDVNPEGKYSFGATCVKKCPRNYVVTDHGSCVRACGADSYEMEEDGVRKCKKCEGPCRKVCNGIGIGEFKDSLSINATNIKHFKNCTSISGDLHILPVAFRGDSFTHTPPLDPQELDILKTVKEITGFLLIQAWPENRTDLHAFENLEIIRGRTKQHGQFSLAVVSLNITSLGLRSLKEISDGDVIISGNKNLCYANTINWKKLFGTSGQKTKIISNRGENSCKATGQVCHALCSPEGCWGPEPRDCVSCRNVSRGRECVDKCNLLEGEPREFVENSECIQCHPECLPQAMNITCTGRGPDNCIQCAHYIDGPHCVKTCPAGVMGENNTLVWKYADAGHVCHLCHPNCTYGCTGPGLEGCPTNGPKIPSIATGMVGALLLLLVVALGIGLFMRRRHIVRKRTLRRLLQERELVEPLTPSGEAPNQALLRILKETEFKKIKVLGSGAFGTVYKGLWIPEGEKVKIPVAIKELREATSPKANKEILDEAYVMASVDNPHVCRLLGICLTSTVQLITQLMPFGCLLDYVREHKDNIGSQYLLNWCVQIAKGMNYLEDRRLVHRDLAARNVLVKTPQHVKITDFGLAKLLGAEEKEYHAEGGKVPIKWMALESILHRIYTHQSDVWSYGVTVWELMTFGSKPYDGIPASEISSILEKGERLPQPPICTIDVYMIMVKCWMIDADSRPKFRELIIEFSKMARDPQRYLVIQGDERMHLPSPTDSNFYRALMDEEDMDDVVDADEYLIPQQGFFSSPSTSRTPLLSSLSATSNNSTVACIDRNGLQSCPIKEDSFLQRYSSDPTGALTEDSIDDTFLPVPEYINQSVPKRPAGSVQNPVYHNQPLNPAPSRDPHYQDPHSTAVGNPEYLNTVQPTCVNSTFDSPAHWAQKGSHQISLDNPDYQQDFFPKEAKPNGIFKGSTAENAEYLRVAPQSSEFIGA
Chain of EGFR L858R (P00533 25-1210 L858R): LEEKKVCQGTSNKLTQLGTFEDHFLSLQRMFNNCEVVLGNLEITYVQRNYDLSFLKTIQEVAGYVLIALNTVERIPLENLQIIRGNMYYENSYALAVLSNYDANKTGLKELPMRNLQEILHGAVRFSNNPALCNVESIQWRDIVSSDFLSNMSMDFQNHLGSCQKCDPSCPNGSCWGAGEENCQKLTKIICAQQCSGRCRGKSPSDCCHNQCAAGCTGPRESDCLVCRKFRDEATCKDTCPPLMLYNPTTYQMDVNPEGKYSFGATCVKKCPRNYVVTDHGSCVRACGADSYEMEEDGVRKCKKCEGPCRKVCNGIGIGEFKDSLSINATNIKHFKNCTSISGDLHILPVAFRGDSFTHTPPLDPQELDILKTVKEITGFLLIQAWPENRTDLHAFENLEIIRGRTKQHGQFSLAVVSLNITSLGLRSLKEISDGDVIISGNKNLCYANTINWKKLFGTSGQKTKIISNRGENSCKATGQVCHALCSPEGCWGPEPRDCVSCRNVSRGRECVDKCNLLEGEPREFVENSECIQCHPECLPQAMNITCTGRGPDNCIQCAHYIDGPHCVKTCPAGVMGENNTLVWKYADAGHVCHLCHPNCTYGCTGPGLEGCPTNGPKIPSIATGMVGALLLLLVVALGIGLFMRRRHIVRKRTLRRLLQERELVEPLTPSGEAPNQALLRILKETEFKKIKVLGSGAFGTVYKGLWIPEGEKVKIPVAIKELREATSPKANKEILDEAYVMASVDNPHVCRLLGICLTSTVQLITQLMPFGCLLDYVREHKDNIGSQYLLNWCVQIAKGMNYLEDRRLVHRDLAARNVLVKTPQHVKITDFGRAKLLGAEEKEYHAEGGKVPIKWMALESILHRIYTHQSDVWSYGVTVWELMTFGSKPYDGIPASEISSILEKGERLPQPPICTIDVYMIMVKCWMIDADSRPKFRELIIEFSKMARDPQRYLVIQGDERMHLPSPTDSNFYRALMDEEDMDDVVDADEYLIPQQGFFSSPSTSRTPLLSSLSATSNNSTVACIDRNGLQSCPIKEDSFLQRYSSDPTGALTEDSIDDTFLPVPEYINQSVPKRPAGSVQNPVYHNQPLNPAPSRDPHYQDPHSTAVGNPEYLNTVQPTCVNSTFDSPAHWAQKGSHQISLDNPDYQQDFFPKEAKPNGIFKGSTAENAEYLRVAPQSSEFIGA
T1 sequence (P04626 with tags, fused parts or gaps INS775YVMA): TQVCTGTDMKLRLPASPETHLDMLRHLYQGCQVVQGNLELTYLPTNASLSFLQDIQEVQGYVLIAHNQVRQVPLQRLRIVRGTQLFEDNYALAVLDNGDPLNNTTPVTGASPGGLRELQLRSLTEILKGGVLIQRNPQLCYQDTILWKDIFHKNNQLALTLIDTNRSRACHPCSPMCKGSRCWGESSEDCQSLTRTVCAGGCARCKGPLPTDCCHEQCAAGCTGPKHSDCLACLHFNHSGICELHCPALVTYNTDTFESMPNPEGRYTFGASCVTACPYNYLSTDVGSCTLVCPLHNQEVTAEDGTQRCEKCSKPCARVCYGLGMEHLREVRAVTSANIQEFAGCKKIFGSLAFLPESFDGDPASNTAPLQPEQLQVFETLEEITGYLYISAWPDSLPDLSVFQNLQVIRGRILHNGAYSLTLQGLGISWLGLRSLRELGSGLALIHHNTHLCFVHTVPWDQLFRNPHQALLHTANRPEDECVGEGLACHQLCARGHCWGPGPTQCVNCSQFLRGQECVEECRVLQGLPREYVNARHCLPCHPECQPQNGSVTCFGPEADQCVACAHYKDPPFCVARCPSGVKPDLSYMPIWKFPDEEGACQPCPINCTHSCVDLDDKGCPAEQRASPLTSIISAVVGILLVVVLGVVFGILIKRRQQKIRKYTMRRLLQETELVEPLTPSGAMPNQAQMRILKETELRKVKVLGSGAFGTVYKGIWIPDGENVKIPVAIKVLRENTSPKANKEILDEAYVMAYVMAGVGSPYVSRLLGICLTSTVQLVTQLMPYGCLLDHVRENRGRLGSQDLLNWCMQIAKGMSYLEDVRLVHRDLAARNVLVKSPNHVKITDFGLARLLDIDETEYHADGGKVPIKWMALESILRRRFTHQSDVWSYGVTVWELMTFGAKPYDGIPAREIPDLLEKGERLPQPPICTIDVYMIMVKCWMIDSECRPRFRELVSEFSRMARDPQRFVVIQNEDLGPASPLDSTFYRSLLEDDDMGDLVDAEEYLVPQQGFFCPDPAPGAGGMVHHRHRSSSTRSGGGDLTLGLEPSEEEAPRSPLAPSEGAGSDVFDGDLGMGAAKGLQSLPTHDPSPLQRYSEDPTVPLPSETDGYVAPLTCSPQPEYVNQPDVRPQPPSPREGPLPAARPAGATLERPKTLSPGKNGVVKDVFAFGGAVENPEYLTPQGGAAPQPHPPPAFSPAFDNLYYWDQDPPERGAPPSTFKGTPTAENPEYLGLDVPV
Chain of EGFR T790M L858R (P00533 25-1210 T790M/L858R): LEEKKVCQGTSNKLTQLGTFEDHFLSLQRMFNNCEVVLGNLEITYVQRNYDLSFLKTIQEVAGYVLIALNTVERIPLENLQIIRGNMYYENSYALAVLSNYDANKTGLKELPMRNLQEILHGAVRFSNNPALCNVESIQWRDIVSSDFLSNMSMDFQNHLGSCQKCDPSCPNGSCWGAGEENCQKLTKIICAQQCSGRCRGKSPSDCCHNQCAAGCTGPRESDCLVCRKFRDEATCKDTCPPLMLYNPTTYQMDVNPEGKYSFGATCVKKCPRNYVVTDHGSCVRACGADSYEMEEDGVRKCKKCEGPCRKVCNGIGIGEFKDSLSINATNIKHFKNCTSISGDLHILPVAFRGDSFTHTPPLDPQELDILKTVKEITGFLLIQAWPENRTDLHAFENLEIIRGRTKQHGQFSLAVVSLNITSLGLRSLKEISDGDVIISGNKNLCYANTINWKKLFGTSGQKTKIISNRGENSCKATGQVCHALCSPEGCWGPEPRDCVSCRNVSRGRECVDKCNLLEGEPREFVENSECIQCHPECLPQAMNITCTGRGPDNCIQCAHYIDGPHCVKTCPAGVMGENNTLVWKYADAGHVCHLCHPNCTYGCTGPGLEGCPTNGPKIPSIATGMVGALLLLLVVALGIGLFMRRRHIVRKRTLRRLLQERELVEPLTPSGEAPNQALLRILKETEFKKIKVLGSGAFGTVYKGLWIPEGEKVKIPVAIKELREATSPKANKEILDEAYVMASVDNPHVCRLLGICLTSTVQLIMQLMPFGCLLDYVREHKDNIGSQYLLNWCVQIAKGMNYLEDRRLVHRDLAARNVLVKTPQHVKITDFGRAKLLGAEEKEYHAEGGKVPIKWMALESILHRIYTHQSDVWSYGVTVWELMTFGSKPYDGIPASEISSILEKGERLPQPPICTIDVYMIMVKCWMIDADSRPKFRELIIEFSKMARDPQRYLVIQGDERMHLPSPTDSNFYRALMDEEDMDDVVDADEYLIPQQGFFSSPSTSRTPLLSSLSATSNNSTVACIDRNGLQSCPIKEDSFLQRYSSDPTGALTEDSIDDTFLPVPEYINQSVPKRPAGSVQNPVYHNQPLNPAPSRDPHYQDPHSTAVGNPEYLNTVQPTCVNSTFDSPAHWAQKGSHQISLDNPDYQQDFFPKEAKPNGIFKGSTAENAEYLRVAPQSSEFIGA

SMILES | IC50 (EGFR wt) [nM] | IC50 [1] [nM] | IC50 (A431) [nM] | IC50 (HER2 INS YVMA) [nM] | IC50 (EGFR T790M L858R) [nM] | IC50 (EGFR L858R) [nM] | IC50 (EGFR L858R Ba/F3) [nM] | IC50 (EGFR vIII Ba/F3) [nM] | IC50 [2] [nM] | IC50 (EGFR L858R T790M Ba/F3) [nM] | IC50 (EGFR (del746-750)) [nM]
C=CC(=O)Nc1cc(-c2c(-c3cnn(C)c3)[nH]c3ncc(-c4cnn(C)c4C)cc23)ccc1C [Example 29, N-(5-(5-(1,5-dimethyl-1H-pyrazol-4-yl)-2-(1-methyl-1 H-pyrazol-4-yl)-1 H-pyrrolo[2,3-b]pyridin-3-yl)-2-methylphenyl)acrylamide] | ≤ 50 | ≤ 50 | 500 to 1000 | ≤ 50 | ≤ 50 | ≤ 50 | ≤ 50 | ≤ 50 | 100 to 500 | ≤ 50 | ≤ 50
C=CC(=O)Nc1cc(-c2c(-c3cnn(C)c3)[nH]c3ncc(-c4cnn(C5COC5)c4)cc23)ccc1C [Example 35, N-(2-methyl-5-(2-(1-methyl-1H-pyrazol-4-yl)-5-(1-(oxetan-3-yl)-1 H-pyrazol-4-yl)-1H-pyrrolo[2,3-b]pyridin-3-yl)phenyl)acrylamide] | ≤ 50 | 500 to 1000 | 1000 to 10000 | 100 to 500 | ≤ 50 | ≤ 50 | ≤ 50 | 100 to 500 | 1000 to 10000 | 100 to 500 | ≤ 50
C=CC(=O)Nc1cc(-c2c(-c3cnn(CC(C)O)c3)[nH]c3ncc(C(=O)OC(C)C)c(C)c23)ccc1C (stereo not drawn) [Example 24, isopropyl 3-(3-acrylamido-4-methylphenyl)-2-(1-(2-hydroxypropyl)-1H-pyrazol-4-yl)-4-methyl-1 H-pyrrolo[2,3-b]pyridine-5-carboxylate] | ≤ 50 | 100 to 500 | 1000 to 10000 | 100 to 500 | 50 to 100 | ≤ 50 | ≤ 50 | 50 to 100 | 500 to 1000 | 50 to 100 | ≤ 50
C=CC(=O)Nc1cc(-c2c(-c3cn(C)cn3)[nH]c3ncc(C(=O)OC(C)C)c(C)c23)ccc1C [Example 25, isopropyl 3-(3-acrylamido-4-methylphenyl)-4-methyl-2-(1-methyl-1 H-imidazol-4-yl)-1H-pyrrolo[2,3-b]pyridine-5-carboxylate] | ≤ 50 | 100 to 500 | 1000 to 10000 | 100 to 500 | 50 to 100 | ≤ 50 | ≤ 50 | 50 to 100 | 100 to 500 | 50 to 100 | ≤ 50
C=CC(=O)Nc1cc(-c2c(-c3cnn(C)c3)[nH]c3ncc(-c4cnn(CCOC)c4)cc23)ccc1C [Example 33, N-(5-(5-(1-(2-methoxyethyl)-1 H-pyrazol-4-yl)-2-(1-methyl-1 H-pyrazol-4-yl)-1H-pyrrolo[2,3-b]pyridin-3-yl)-2-methylphenyl)acrylamide] | ≤ 50 | 100 to 500 | 1000 to 10000 | 50 to 100 | ≤ 50 | ≤ 50 | ≤ 50 | ≤ 50 | 500 to 1000 | 100 to 500 | ≤ 50
C=CC(=O)Nc1cc(-c2c(-c3cnn(C)c3)[nH]c3ncc(-c4cnn(CC(C)C)c4)cc23)ccc1C [Example 32, N-(5-(5-(1-isobutyl-1H-pyrazol-4-yl)-2-(1-methyl-1H-pyrazol-4-yl)-1H-pyrrolo[2,3-b]pyridin-3-yl)-2-methylphenyl)acrylamide] | ≤ 50 | 50 to 100 | 1000 to 10000 | 100 to 500 | 100 to 500 | ≤ 50 | ≤ 50 | ≤ 50 | 100 to 500 | 100 to 500 | ≤ 50
C=CC(=O)Nc1cc(-c2c(-c3cnn(C)c3)[nH]c3ncc(-c4cnn(C)c4)cc23)ccc1C [Example 26, N-(5-(2,5-bis(1-methyl-1H-pyrazol-4-yl)-1H-pyrrolo[2,3-b]pyridin-3-yl)-2-methylphenyl)acrylamide 2,2,2-trifluoroacetate] | ≤ 50 | 50 to 100 | 1000 to 10000 | 100 to 500 | ≤ 50 | ≤ 50 | ≤ 50 | ≤ 50 | 100 to 500 | 100 to 500 | ≤ 50
C=CC(=O)Nc1cc(-c2c(-c3cnn(C)c3)[nH]c3ncc(-c4cnn(CC)c4)cc23)ccc1C [Example 28, N-(5-(5-(1-ethyl-1H-pyrazol-4-yl)-2-(1-methyl-1 H-pyrazol-4-yl)-1 H-pyrrolo[2,3-b]pyridin-3-yl)-2-methylphenyl)acrylamide] | ≤ 50 | ≤ 50 | 1000 to 10000 | 50 to 100 | ≤ 50 | ≤ 50 | ≤ 50 | ≤ 50 | 100 to 500 | 50 to 100 | ≤ 50
C=CC(=O)Nc1cc(-c2c(-c3cnn(C)c3)[nH]c3ncc(-c4cnn(C5CC5)c4)cc23)ccc1C [Example 31, N-(5-(5-(1-cyclopropyl-1H-pyrazol-4-yl)-2-(1-methyl-1 H-pyrazol-4-yl)-1 H-pyrrolo[2,3-b]pyridin-3-yl)-2-methylphenyl)acrylamide] | ≤ 50 | 50 to 100 | 1000 to 10000 | 50 to 100 | ≤ 50 | ≤ 50 | ≤ 50 | ≤ 50 | 100 to 500 | ≤ 50 | ≤ 50
